Biological target: human NET (Homo sapiens, UniProt P23975)
Assay: NET transporter inhibitory activity test (neurotransmitter transporter uptake assay kit)
Assay type: cell-based
Protocol: Transporter inhibition of human DAT and NET expressed in HEK-293 cells was assessed using a neurotransmitter transporter uptake assay kit. The assay was performed as described in the kit instructions, using centanafadine as a positive control. The specific procedures were as follows:
First day cell plating: HEK 293T cells were digested with trypsin, centrifuged, resuspended with a medium, counted, and seeded into a 6 cm culture dish at a density of 3×10^6 cells/well.
Second day cell transfection: HEK 293T cells were subjected to medium exchange, and then A, B tubes were prepared for NET-pcDNA5/FRT plasmid to be transfected. 200 μL of Opti-MEM was added to tube A, and 10 μL of Lipofectamine™ 3000 was added. The mixture was mixed well. 200 μL of Opti-MEM was added to tube B, and 5 μg of NET-pcDNA5/FRT plasmid was added. The mixture was mixed well, and then 10 μL of P3000™ was added to tube B. The mixture was mixed well (plasmid to transfection reagent ratio 1 μg:2 μL). The diluted solution of tube A was added to the diluted solution of tube B. The mixture was mixed well, and incubated at room temperature for 15 min. Finally, the mixture was gently added to the cells that had been subjected to medium exchange, gently shaken to mix, and then incubated overnight in an incubator at 37° C. with a carbon dioxide concentration of 5%. The cells were used for compound functional activity assays 18-20 h after transfection.
• a) After overnight transfection of NET cells, the cells were digested with trypsin, resuspended with DMEM+10% Dialyzed FBS medium, seeded into a 384-well plate at 20000 cells/well, and incubated overnight. Stably transfected DAT cells were digested with trypsin, resuspended with DMEM+10% Dialyzed FBS medium, seeded into a 384-well plate at 2500 cells/well, and incubated overnight. • b) 1× Assay buffer was prepared according to the kit instruction for later use; the positive compound and the test compound were serially diluted with DMSO, and then diluted to 2× with 1× assay buffer. • c) The medium was removed from the 384-well plate by centrifugation. • d) 16 μL of the compound prepared in step b) was added to corresponding experimental wells, wherein an initial concentration of 2× positive control compound was added to the positive control well, and 0.2% DMSO buffer was added to the negative control well. After centrifuging, the plate was incubated at 37° C. for 30 min. • e) A detection reagent was prepared using 1×HBSS, and 16 μL of the detection reagent was added to each well. After centrifuging, the plate was incubated at 37° C. for 60 min. • f) After incubation, the reading at 510 nm under the excitation of the detection wavelength of 425 nm was measured using a microplate reader. Curve fitting and IC50 calculation were performed using GraphPad Prism software nonlinear regression method.

Sequence of human NET (P23975 whole entry): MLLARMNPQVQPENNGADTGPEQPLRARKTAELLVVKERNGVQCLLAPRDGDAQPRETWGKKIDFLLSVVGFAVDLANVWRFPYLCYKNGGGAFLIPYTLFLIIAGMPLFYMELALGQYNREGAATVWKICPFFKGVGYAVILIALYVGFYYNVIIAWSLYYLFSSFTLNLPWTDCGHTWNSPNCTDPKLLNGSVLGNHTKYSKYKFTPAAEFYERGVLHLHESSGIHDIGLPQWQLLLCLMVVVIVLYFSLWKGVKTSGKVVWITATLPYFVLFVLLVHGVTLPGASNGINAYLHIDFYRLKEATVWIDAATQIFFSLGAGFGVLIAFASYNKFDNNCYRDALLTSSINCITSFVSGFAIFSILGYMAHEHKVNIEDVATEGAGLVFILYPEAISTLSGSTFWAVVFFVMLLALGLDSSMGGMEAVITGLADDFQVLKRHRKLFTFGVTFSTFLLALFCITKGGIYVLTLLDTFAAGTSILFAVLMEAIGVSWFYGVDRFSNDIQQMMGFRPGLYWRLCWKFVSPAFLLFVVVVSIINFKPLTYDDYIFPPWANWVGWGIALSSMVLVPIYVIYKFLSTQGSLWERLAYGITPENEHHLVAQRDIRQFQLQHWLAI

Q: Which IC50 does the source give for `CCNC1(c2ccccc2)CCc2nc(N)sc2C1` (racemic) [rac-A5, N^6-ethyl-6-phenyl-4,5,6,7-tetrahydrobenzothiazole-2,6-diamine] here?
A: Its IC50 is 3.3 µM.

Reference: patent publication US20260174739A1 (priority 2022, published 2026)
